According to ChEMBL document CHEMBL1201862, “PubChem BioAssay data set” (2004):
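These data come from cells grown in 96-well plates and exposed to compound for 48 hours at five concentrations. Here, GI50 denotes the concentration required for 50% inhibition of growth.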 Calls of active or inactive are those of the source. No stated cut-off is given here; in the data, active = GI50 up to about 1.1 µM and inactive = higher.

What was measured:
Assay in all cases: NCI-60 cell line screen, 48 h
[1] = tested on: 786-0
[2] = tested on: A498
[3] = tested on: A549
[4] = tested on: ACHN
[5] = tested on: BT-549
[6] = tested on: CAKI-1
[7] = tested on: CCRF-CEM
[8] = tested on: COLO 205
[9] = tested on: DU-145
[10] = tested on: EKVX
[11] = tested on: HCC 2998
[12] = tested on: HCT-116
[13] = tested on: HCT-15
[14] = tested on: HL-60
[15] = tested on: HOP-62
[16] = tested on: HOP-92
[17] = tested on: HT-29
[18] = tested on: Hs-578T
[19] = tested on: IGROV-1
[20] = tested on: K562
[21] = tested on: KM12
[22] = tested on: LOX IMVI
[23] = tested on: M14
[24] = tested on: MCF7
[25] = tested on: MDA-MB-231
[26] = tested on: MDA-MB-435
[27] = tested on: MDA-N
[28] = tested on: MOLT-4
[29] = tested on: Malme-3M
[30] = tested on: NCI-H226
[31] = tested on: NCI-H23
[32] = tested on: NCI-H460
[33] = tested on: NCI-H522
[34] = tested on: NCI/ADR-RES
[35] = tested on: OVCAR-3
[36] = tested on: OVCAR-4
[37] = tested on: OVCAR-5
[38] = tested on: OVCAR-8
[39] = tested on: PC-3
[40] = tested on: RPMI-8226
[41] = tested on: RXF 393
[42] = tested on: SF-268
[43] = tested on: SF-295
[44] = tested on: SF-539
[45] = tested on: SK-MEL-28
[46] = tested on: SK-MEL-2
[47] = tested on: SK-MEL-5
[48] = tested on: SK-OV-3
[49] = tested on: SN12C
[50] = tested on: SNB-19
[51] = tested on: SNB-75
[52] = tested on: SW-620
[53] = tested on: T47D
[54] = tested on: TK-10
[55] = tested on: U-251
[56] = tested on: UACC-257
[57] = tested on: UACC-62
[58] = tested on: UO-31
[59] = tested on: SR

Compound: COc1cccc(/C=C/c2ccnc3ccccc23)c1OC
- GI50 [1]: > 10 µM (inactive)
- GI50 [2]: > 10 µM (inactive)
- GI50 [3]: > 10 µM (inactive)
- GI50 [4]: > 10 µM (inactive)
- GI50 [5]: > 10 µM (inactive)
- GI50 [6]: > 10 µM (inactive)
- GI50 [7]: 4.6 µM (inactive)
- GI50 [8]: > 10 µM (inactive)
- GI50 [9]: > 10 µM (inactive)
- GI50 [10]: 9.66 µM (inactive)
- GI50 [11]: > 10 µM (inactive)
- GI50 [12]: > 10 µM (inactive)
- GI50 [13]: > 10 µM
- GI50 [14]: > 10 µM (inactive)
- GI50 [15]: > 10 µM (inactive)
- GI50 [16]: 1.08 µM (active)
- GI50 [17]: 9.86 µM (inactive)
- GI50 [18]: > 10 µM (inactive)
- GI50 [19]: > 10 µM (inactive)
- GI50 [20]: 4.7 µM (inactive)
- GI50 [21]: > 10 µM (inactive)
- GI50 [22]: 4.79 µM (inactive)
- GI50 [23]: > 10 µM (inactive)
- GI50 [24]: > 10 µM (inactive)
- GI50 [25]: > 10 µM (inactive)
- GI50 [26]: 2.86 µM (inactive)
- GI50 [27]: 4.94 µM (inactive)
- GI50 [28]: 3.89 µM (inactive)
- GI50 [29]: > 10 µM (inactive)
- GI50 [30]: > 10 µM (inactive)
- GI50 [31]: 9.66 µM (inactive)
- GI50 [32]: > 10 µM (inactive)
- GI50 [33]: > 10 µM (inactive)
- GI50 [34]: 2.67 µM (inactive)
- GI50 [35]: 7.78 µM (inactive)
- GI50 [36]: > 10 µM (inactive)
- GI50 [37]: > 10 µM (inactive)
- GI50 [38]: > 10 µM (inactive)
- GI50 [39]: > 10 µM (inactive)
- GI50 [40]: 2.27 µM (inactive)
- GI50 [41]: > 10 µM (inactive)
- GI50 [42]: > 10 µM (inactive)
- GI50 [43]: > 10 µM (inactive)
- GI50 [44]: > 10 µM (inactive)
- GI50 [45]: > 10 µM (inactive)
- GI50 [46]: > 10 µM (inactive)
- GI50 [47]: 6.89 µM (inactive)
- GI50 [48]: > 10 µM (inactive)
- GI50 [49]: > 10 µM (inactive)
- GI50 [50]: > 10 µM (inactive)
- GI50 [51]: > 10 µM (inactive)
- GI50 [52]: > 10 µM (inactive)
- GI50 [53]: 8.17 µM (inactive)
- GI50 [54]: > 10 µM (inactive)
- GI50 [55]: > 10 µM (inactive)
- GI50 [56]: > 10 µM (inactive)
- GI50 [57]: > 10 µM (inactive)
- GI50 [58]: > 10 µM (inactive)

Compound: O=C1CC(C(CC(=O)c2ccccc2)c2ccccc2)C(=O)c2ccccc2N1 (stereo not given)
- GI50 [1]: > 100 µM (inactive)
- GI50 [2]: > 100 µM (inactive)
- GI50 [3]: 38.2 µM (inactive)
- GI50 [4]: 45.3 µM (inactive)
- GI50 [5]: 29.1 µM (inactive)
- GI50 [7]: 25.9 µM (inactive)
- GI50 [8]: 54.8 µM (inactive)
- GI50 [9]: 48.6 µM (inactive)
- GI50 [10]: 40.5 µM (inactive)
- GI50 [11]: 48.6 µM (inactive)
- GI50 [12]: 49.3 µM (inactive)
- GI50 [13]: 33.8 µM
- GI50 [14]: 31.5 µM (inactive)
- GI50 [15]: 51.1 µM (inactive)
- GI50 [17]: 32.3 µM (inactive)
- GI50 [18]: 43.5 µM (inactive)
- GI50 [19]: > 100 µM (inactive)
- GI50 [20]: 33.1 µM (inactive)
- GI50 [21]: 49.7 µM (inactive)
- GI50 [22]: 35.4 µM (inactive)
- GI50 [23]: 33.7 µM (inactive)
- GI50 [24]: 25.9 µM (inactive)
- GI50 [25]: 49 µM (inactive)
- GI50 [26]: 50.1 µM (inactive)
- GI50 [27]: 49.3 µM (inactive)
- GI50 [28]: 17.8 µM (inactive)
- GI50 [29]: 28.4 µM (inactive)
- GI50 [30]: 24.4 µM (inactive)
- GI50 [31]: > 100 µM (inactive)
- GI50 [32]: 33.3 µM (inactive)
- GI50 [34]: 15.1 µM (inactive)
- GI50 [35]: 28.4 µM (inactive)
- GI50 [37]: 56 µM (inactive)
- GI50 [38]: 27.8 µM (inactive)
- GI50 [39]: 25.5 µM (inactive)
- GI50 [40]: 22.1 µM (inactive)
- GI50 [42]: 53.6 µM (inactive)
- GI50 [43]: 37.2 µM (inactive)
- GI50 [44]: 38.3 µM (inactive)
- GI50 [46]: 16 µM (inactive)
- GI50 [47]: 24.2 µM (inactive)
- GI50 [48]: > 100 µM (inactive)
- GI50 [49]: 35.7 µM (inactive)
- GI50 [50]: 51.5 µM (inactive)
- GI50 [51]: 30.8 µM (inactive)
- GI50 [59]: 16 µM (inactive)
- GI50 [52]: 68.7 µM (inactive)
- GI50 [53]: 20.7 µM (inactive)
- GI50 [55]: 84.7 µM (inactive)
- GI50 [56]: 88.5 µM (inactive)
- GI50 [57]: 31.6 µM (inactive)
- GI50 [58]: 14.2 µM (inactive)
